This experiment concerns 885512-296-R-J2-PDC complex spheroid viability. As to the kind of experiment: Anticancer human tumor 885512-296-R-J2-PDC patient-derived breast carcinoma cell line growth inhibition [GQUAD]. The conditions noted are these: for viability, T/C: stronger effect = lower value. From the text: DNA G-quadruplex Stabilizer Agents in Combinations in Complex Spheroids
A high-throughput screen of multi-cell type tumor spheroids was designed to identify active combinations of DNA G-quadruplex stabilizer agents and targeted small molecules. Complex spheroids include a stromal component modeled by human endothelial cells (HUVEC) and fibroblasts modeled by human mesenchymal stem cells (MSCs). The concentration ranges selected for each drug and investigational agent were based upon clinically achievable concentrations if the clinical Cmax of the agent was known.
Compounds. The drugs and investigational agents: pidnarulex (CX-5461; NSC782164), APTO-253 (NSC789042), BRACO-19 (NSC847499), peposertib (NSC802822), ceralasertib (NSC780249), elimusertib (NSC800525), camonsertib (NSC841442), AZD-1390 (NSC803789), olaparib (NSC753686), talazoparib (NSC767125), ART-558 (NSC835418), sotorasib (NSC818433), MRTX-1133 (NSC836407), SN-38 (NSC673596), topotecan (NSC609699), etoposide (NSC141540), doxorubicin (NSC123127), gemcitabine (NSC613327), 5-fluorouracil (NSC19893), paclitaxel (NSC125973), vemurafenib (NSC761431), panobinostat (NSC761190), R-306465 (JNJ-16241199; NSC773264), adavosertib (NSC754352), TP-3654 (NSC805149), carboplatin (NSC241240), KSQ-4279 (NSC840948), and staurosporine (NSC755774) were obtained from the National Cancer Institute (NCI) Developmental Therapeutics Program Chemical Repository (34). The FDA-approved anticancer drug set is available from the NCI Developmental Therapeutics Program. […] The stock solutions were prepared in dimethyl sulfoxide (DMSO, Sigma-Aldrich, St. Louis, MO, cat. D2650) at 800-fold the tested concentration and stored at -70 degrees C prior to their use. All drugs and investigational agents were tested over a range starting from a high concentration at or near the clinical Cmax and decreasing in half-log increments. If the clinical Cmax for an agent had not been determined, the highest concentration tested was 10 microM.
2.3 Cell Culture. All cells were maintained in an incubator at 37 degrees C and 5% CO2 with 95% humidity. The PDC lines were cultured according to standard operating procedures established by the NCI PDMR. All PDCs were thawed and cultured in Matrigel-coated flasks prepared with a working solution of 1X Ham's F-12 nutrient mix, without supplementation (Invitrogen, cat. 11765054), 100 U/mL penicillin-streptomycin (Invitrogen, cat. 15140122), and 2.5% Matrigel (Corning Inc., cat. 354248) for the first three passages. The 857933-349-R-J2-PDC line was cultured in 6C/Colon 1B media, which includes advanced DMEM/F-12 (Thermo Fisher Scientific, cat. 12634028), 10 mM HEPES (Thermo Fisher Scientific, cat. 15630080), 1X GlutaMAX supplement (Thermo Fisher Scientific, cat. 35050061), 0.1 mg/mL primocin (InvivoGen, cat. ant-pm-2), 10% defined fetal bovine serum, heat inactivated (HyClone Laboratories Inc., cat. SH30070.03HI), 50% L-WRN conditioned media (ATCC, cat. CRL-3276), 1.25 mM N-Acetyl-L-cysteine (Sigma-Aldrich, cat. A9165), 10 mM nicotinamide (Sigma-Aldrich, cat. N0636), 1X B-27 supplement (Thermo Fisher Scientific, cat. 17504044), 1X N-2 supplement (Thermo Fisher Scientific, cat. 17502048), 10 microM Y-27632 dihydrochloride (Tocris Bioscience, cat. 1254), and 50 ng/mL human EGF recombinant protein (Thermo Fisher Scientific, cat. PHG0311). The 485176-168-R4-J1-PDC line was cultured in Panc media, which includes all 6C/Colon 1B media components plus 100 ng/mL human FGF-10 (Thermo Fisher Scientific, cat. 100-26), 500 nM SB-431542 (Selleckchem, cat. S1067), and gastrin (Tocris, cat. 3006).
[…]

These results are taken from PubChem BioAssay AID2060490 (Molecular Pharmacology Branch, DTP, NCI, 2025).

One may read the viability, T/C as the result in the treated group divided by that in the control group, in per cent. One may read the IC50 as the concentration needed to halve the response being measured.

Structures are written as SMILES. “And” between values parts separate entries of the source, which are not always exact repeats. Identical values can stand only once.
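Note: spheroids exposed to the compounds for one week.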
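Throughout, for viability, T/C: percent of tumor spheroid viability relative to DMSO vehicle control wells.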

Turning to `Cc1cnc(CNC(=O)c2c(=O)c3ccc(N4CCCN(C)CC4)nc3n3c2sc2ccccc23)cn1`, the viability, T/C reads like this: (compound 0.0316 µM) 86.1% [middle of 12 runs]; (compound 0.316 µM) 28.4% [middle of 12 runs]; (compound 1 µM) 26.3% [middle of 12 runs]; (compound 3.16 µM) 27% [middle of 12 runs]; (compound 10 µM) 0.17% [middle of 9 runs]. For the same compound, the IC50 (compound alone, run of 04/16/2024) is 166 nM [middle of 12 runs].
On to `Cn1ncnc1[C@H]1c2n[nH]c(=O)c3cc(F)cc(c23)N[C@@H]1c1ccc(F)cc1`, for which the viability, T/C reads like this: (compound 0.000999 µM) 100% and 96.8% and 93.9%; (compound 0.00316 µM) 93.9% and 87.6% and 102%; (compound 0.00999 µM) 80.8% and 90.4% and 90%; (compound 0.0316 µM) 81.4% and 84.2% and 82.3%; (compound 0.0999 µM) 75.4% and 66.1% and 67.8%; (compound 0.316 µM) 50.8% and 45.5% and 53.5%. Further, for the setting “curve of compound”, the IC50 was > 0.316 µM and 0.246 µM.
Take `COc1ncnc(C2CC2)c1-c1ncc2cnn(Cc3ccc(-c4nc(C(F)(F)F)cn4C(C)C)cc3)c2n1` + CN(C)c1ccc(Nc2c3ccc(NC(=O)CCN4CCCC4)cc3nc3cc(NC(=O)CCN4CCCC4)ccc23)cc1: the concentration for half-maximal inhibition (IC50) (curve of first compound, second compound 0.0316 µM) is > 10 µM; the IC50 (curve of first compound, second compound 0.1 µM) was > 10 µM; the IC50 (curve of first compound, second compound 0.316 µM) is > 10 µM; the IC50 (curve of first compound, second compound 1 µM) is > 10 µM; the IC50 (curve of first compound, second compound 3.16 µM) was > 10 µM; the IC50 (curve of first compound, second compound 10 µM) was < 0.0316 µM. Further, the viability, T/C is, setting by setting: (second compound 0.0316 µM, first compound 0.0316 µM) 107%; (second compound 0.0316 µM, first compound 0.1 µM) 102%; (second compound 0.0316 µM, first compound 0.316 µM) 93.3%; (second compound 0.0316 µM, first compound 1 µM) 104%; (second compound 0.0316 µM, first compound 3.16 µM) 100%; (second compound 0.0316 µM, first compound 10 µM) 92.3%. The viability, T/C (second compound 0.1 µM, first compound 0.0316 µM) was 103%; the viability, T/C (second compound 0.1 µM, first compound 0.1 µM) was 103%; the viability, T/C (second compound 0.1 µM, first compound 0.316 µM) was 97.3%; the viability, T/C (second compound 0.1 µM, first compound 1 µM) was 93.6%; the viability, T/C (second compound 0.1 µM, first compound 3.16 µM) is 92.5%; the viability, T/C (second compound 0.1 µM, first compound 10 µM) is 81.4%. Further, the viability, T/C is 105% (second compound 0.316 µM, first compound 0.0316 µM); 108% (second compound 0.316 µM, first compound 0.1 µM); 103% (second compound 0.316 µM, first compound 0.316 µM); 103% (second compound 0.316 µM, first compound 1 µM); 104% (second compound 0.316 µM, first compound 3.16 µM); 85.8% (second compound 0.316 µM, first compound 10 µM). In addition, the viability, T/C was 95% (second compound 1 µM, first compound 0.0316 µM); 97.2% (second compound 1 µM, first compound 0.1 µM); 103% (second compound 1 µM, first compound 0.316 µM); 91% (second compound 1 µM, first compound 1 µM); 101% (second compound 1 µM, first compound 3.16 µM); 87.4% (second compound 1 µM, first compound 10 µM). Further, the viability, T/C reads like this: (second compound 3.16 µM, first compound 0.0316 µM) 99.4%; (second compound 3.16 µM, first compound 0.1 µM) 107%; (second compound 3.16 µM, first compound 0.316 µM) 106%; (second compound 3.16 µM, first compound 1 µM) 83.9%; (second compound 3.16 µM, first compound 3.16 µM) 81.3%; (second compound 3.16 µM, first compound 10 µM) 50.3%. The viability, T/C runs as follows: (second compound 10 µM, first compound 0.0316 µM) 28.5%; (second compound 10 µM, first compound 0.1 µM) 18.7%; (second compound 10 µM, first compound 0.316 µM) 16.4%; (second compound 10 µM, first compound 1 µM) 15.3%; (second compound 10 µM, first compound 3.16 µM) 11.9%; (second compound 10 µM, first compound 10 µM) 5.91%.
As for `O=C(c1cc(Cc2n[nH]c(=O)c3ccccc23)ccc1F)N1CCN(C(=O)C2CC2)CC1`, the viability, T/C (compound 0.0316 µM) was 99.8% and 85.3% and 97.1%; the viability, T/C (compound 0.1 µM) is 117% and 107% and 96.9%; the viability, T/C (compound 0.316 µM) was 112% and 116% and 95.1%; the viability, T/C (compound 1 µM) was 152% and 127% and 126%; the viability, T/C (compound 3.16 µM) was 144% and 122% (2×); the viability, T/C (compound 10 µM) was 41.6% and 24.8% and 33%. For the same compound, the IC50 (curve of compound) is 8.9 µM and 7.18 µM and 7.7 µM.
